Measured values as given in ChEMBL document CHEMBL1201862, “PubChem BioAssay data set” (2004).
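1) Cells in 96-well plates. 2) Compound, 48 h, 5 concentrations. 3) Linear interpolation between surrounding doses. 4) Unreached endpoint = highest concentration. The concentration for 50% growth inhibition is given as GI50.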 Active and inactive are the calls of the source. Cut-off read from the data, not from the text of the source: active = GI50 up to about 1.1 µM and inactive = higher.

Columns and labels:
Experiment in all cases: NCI-60 cell line screen, 48 h
HL-60 = tested on: HL-60
BT-549 = tested on: BT-549
NCI/ADR-RES = tested on: NCI/ADR-RES
Malme-3M = tested on: Malme-3M
UACC-257 = tested on: UACC-257
OVCAR-4 = tested on: OVCAR-4
SNB-19 = tested on: SNB-19
MCF7 = tested on: MCF7
TK-10 = tested on: TK-10
CAKI-1 = tested on: CAKI-1
RXF 393 = tested on: RXF 393
CCRF-CEM = tested on: CCRF-CEM
SF-268 = tested on: SF-268
DU-145 = tested on: DU-145
MDA-MB-435 = tested on: MDA-MB-435
SN12C = tested on: SN12C
Hs-578T = tested on: Hs-578T
MOLT-4 = tested on: MOLT-4
SNB-75 = tested on: SNB-75
SK-MEL-2 = tested on: SK-MEL-2

Measured: GI50

CC(C)(C)OC(=O)NCC(O)CNC(=O)OC(C)(C)C
inactive: HL-60 > 100 µM | BT-549 > 100 µM | NCI/ADR-RES > 100 µM | Malme-3M > 100 µM | UACC-257 > 100 µM | OVCAR-4 > 100 µM | SNB-19 > 100 µM | MCF7 > 100 µM | TK-10 > 100 µM | CAKI-1 > 100 µM | RXF 393 > 100 µM | CCRF-CEM > 100 µM | SF-268 > 100 µM | DU-145 > 100 µM | MDA-MB-435 > 100 µM | SN12C > 100 µM | Hs-578T > 100 µM | MOLT-4 > 100 µM

N#C/C(N)=C(\C#N)NC(=O)C(=O)N/C(C#N)=C(\N)C#N
inactive: BT-549 > 100 µM | NCI/ADR-RES > 100 µM | Malme-3M 59.6 µM | UACC-257 > 100 µM | SNB-75 29.3 µM | OVCAR-4 > 100 µM | SNB-19 > 100 µM | MCF7 > 100 µM | TK-10 > 100 µM | CAKI-1 > 100 µM | RXF 393 9.38 µM | CCRF-CEM 77.6 µM | SF-268 > 100 µM | DU-145 > 100 µM | MDA-MB-435 > 100 µM | SN12C > 100 µM | Hs-578T > 100 µM | SK-MEL-2 > 100 µM | MOLT-4 63.1 µM

C=CCCCC1SC2=C(CC)CCCN2C1=O (centres undefined)
inactive: HL-60 34.4 µM | BT-549 46.3 µM | NCI/ADR-RES 31.6 µM | Malme-3M 48.5 µM | UACC-257 27.6 µM | OVCAR-4 65.6 µM | SNB-19 73.5 µM | MCF7 42.7 µM | TK-10 84.3 µM | CAKI-1 > 100 µM | RXF 393 40.5 µM | SF-268 74.6 µM | DU-145 > 100 µM | MDA-MB-435 84.3 µM | SN12C > 100 µM | Hs-578T 47.9 µM | SK-MEL-2 > 100 µM | MOLT-4 56.8 µM

CC1=NN(c2nc(N)nc(CCl)n2)CC1
inactive: HL-60 12 µM | BT-549 31 µM | NCI/ADR-RES 24.2 µM | UACC-257 69.5 µM | SNB-75 18.6 µM | OVCAR-4 16.8 µM | SNB-19 > 100 µM | MCF7 38.1 µM | TK-10 55.5 µM | CAKI-1 9.12 µM | RXF 393 49.8 µM | CCRF-CEM 14.9 µM | SF-268 32.7 µM | DU-145 56.4 µM | MDA-MB-435 32 µM | SN12C 32.4 µM | Hs-578T 26.3 µM | SK-MEL-2 26.6 µM | MOLT-4 19.7 µM

COC(=O)[C@H](Cc1ccccc1)NC(=O)N(CCC#N)CCCCN(CCC#N)C(=O)N[C@@H](Cc1ccccc1)C(=O)OC
inactive: BT-549 > 100 µM | NCI/ADR-RES > 100 µM | Malme-3M > 100 µM | UACC-257 > 100 µM | SNB-75 > 27.2 µM | OVCAR-4 > 100 µM | SNB-19 > 100 µM | MCF7 > 100 µM | TK-10 > 100 µM | CAKI-1 > 100 µM | RXF 393 > 58.1 µM | SF-268 > 100 µM | DU-145 > 100 µM | MDA-MB-435 > 100 µM | SN12C > 100 µM | Hs-578T > 100 µM | SK-MEL-2 > 100 µM | MOLT-4 > 100 µM

CC(=O)Nc1cc(Nc2cc(O)nc(O)n2)ccc1C
inactive: HL-60 > 100 µM | BT-549 > 100 µM | NCI/ADR-RES > 100 µM | Malme-3M > 100 µM | UACC-257 > 100 µM | SNB-75 > 100 µM | OVCAR-4 > 100 µM | SNB-19 > 100 µM | MCF7 > 100 µM | TK-10 > 100 µM | RXF 393 > 100 µM | CCRF-CEM > 100 µM | SF-268 > 100 µM | DU-145 > 100 µM | MDA-MB-435 > 100 µM | SN12C > 100 µM | Hs-578T > 100 µM
